{"source": "patent US8529952B2", "about": "(Ethypharm, priority 1999, dated 2013)", "origin": "cited, not measured here", "data": [{"smiles": "CC(C)(Oc1ccc(C(=O)c2ccc(Cl)cc2)cc1)C(=O)O", "note": "[fenofibric acid]", "values": [{"measurement": "mean concentration in the plasma", "setting": "dose of 300 mg of fenofibrate per day", "result": "~15", "unit": "micrograms/ml"}, {"measurement": "time to maximum concentration in the plasma after ingestion", "setting": "on average", "result": "five"}, {"measurement": "half-life for elimination from the plasma", "setting": "plasma", "result": "~20", "unit": "h"}]}]}
